According to the supplement of paper PMC7394473:

Legend:
Conditions in all cases: 72 h
U2OS [1] = experiment: GR50 (concentration giving GR = 0.5)
Procedure: (§1)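 U2OS cells treated with full dose titrations of drug; live and dead cells counted by STACK microscopy (mKate2 nuclei, SYTOX Green) at 72 h, biological triplicates. GR and FV dose responses were fitted with 4-parameter logistic models (GR lower bound -1). GRADE (0-100) is the rescaled angle of a linear fit of FV versus GR at doses with GR >= 0, giving the percentage of the response due to cell death.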

U2OS [2] = experiment: fractional viability (live cells / total cells); higher = less cell death
Procedure: (§2)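 U2OS::Nuc-mKate2 cells seeded in 96-well plates and treated with eight- to ten-point half-log or log dilutions of drug in the presence of 50 nM SYTOX Green. Live (mKate2+) and dead (SYTOX+) cells were counted by IncuCyte STACK live-cell microscopy at 72 h; biological triplicates. GR is the normalised growth-rate inhibition value (Hafner 2016; 1 = untreated growth, <0 = population shrinking). FV is live/(live+dead) cells, not normalised.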

U2OS [3] = experiment: FV IC50 (concentration giving fractional viability 0.5); higher = less potent killing
Procedure: as §1

U2OS [4] = experiment: drug GRADE (percent of response due to cell death) (% (0-100)); higher = more death-driven response
Procedure: as §1

U2OS [5] = experiment: GRmin (fitted minimal GR value at highest effect) (GR value (dimensionless)); higher = less efficacious
Procedure: as §1

U2OS [6] = experiment: normalized growth rate inhibition value (GR) relative to untreated cells (GR value (dimensionless, 1 = untreated growth)); higher = less growth inhibition
Procedure: as §2

Cc1[nH]c2ccccc2c1CCNCc1ccc(/C=C/C(=O)NO)cc1 [Panobinostat]
GR50 (U2OS [1]): 0.383 µM | fractional viability (U2OS [2]; 0.01 µM): 0.983 | fractional viability (U2OS [2]; 0.0316 µM): 0.984 | fractional viability (U2OS [2]; 0.1 µM): 0.979 | fractional viability (U2OS [2]; 0.316 µM): 0.933 | fractional viability (U2OS [2]; 1 µM): 0.685 | fractional viability (U2OS [2]; 3.16 µM): 0.271 | fractional viability (U2OS [2]; 10 µM): 0.0583 | fractional viability (U2OS [2]; 31.6 µM): 0.00906 | FV IC50 (U2OS [3]): 1670 nM | drug GRADE (U2OS [4]): 55.3 | GRmin (U2OS [5]): -0.832 | normalized growth rate inhibition value (U2OS [6]; 0.01 µM): 1.04 | normalized growth rate inhibition value (U2OS [6]; 0.0316 µM): 1.05 | normalized growth rate inhibition value (U2OS [6]; 0.1 µM): 0.794 | normalized growth rate inhibition value (U2OS [6]; 0.316 µM): 0.61 | normalized growth rate inhibition value (U2OS [6]; 1 µM): 0.00935 | normalized growth rate inhibition value (U2OS [6]; 3.16 µM): -0.45 | normalized growth rate inhibition value (U2OS [6]; 10 µM): -0.679 | normalized growth rate inhibition value (U2OS [6]; 31.6 µM): -0.831

O=C(Nc1ccc([N+](=O)[O-])cc1Cl)c1cc(Cl)ccc1O [Nicolsamide]
GR50 (U2OS [1]): 0.347 µM | fractional viability (U2OS [2]; 0.01 µM): 0.98 | fractional viability (U2OS [2]; 0.0316 µM): 0.975 | fractional viability (U2OS [2]; 0.1 µM): 0.979 | fractional viability (U2OS [2]; 0.316 µM): 0.942 | fractional viability (U2OS [2]; 1 µM): 0.33 | fractional viability (U2OS [2]; 3.16 µM): 0.0377 | fractional viability (U2OS [2]; 10 µM): 0.0138 | fractional viability (U2OS [2]; 31.6 µM): 0.0218 | FV IC50 (U2OS [3]): 803 nM | drug GRADE (U2OS [4]): 29.4 | GRmin (U2OS [5]): -0.791 | normalized growth rate inhibition value (U2OS [6]; 0.01 µM): 0.975 | normalized growth rate inhibition value (U2OS [6]; 0.0316 µM): 1.01 | normalized growth rate inhibition value (U2OS [6]; 0.1 µM): 0.934 | normalized growth rate inhibition value (U2OS [6]; 0.316 µM): 0.557 | normalized growth rate inhibition value (U2OS [6]; 1 µM): -0.319 | normalized growth rate inhibition value (U2OS [6]; 3.16 µM): -0.722 | normalized growth rate inhibition value (U2OS [6]; 10 µM): -0.81 | normalized growth rate inhibition value (U2OS [6]; 31.6 µM): -0.763

CCN1CCN(Cc2ccc(Nc3ncc(F)c(-c4cc(F)c5nc(C)n(C(C)C)c5c4)n3)nc2)CC1 [Abemaciclib]
GR50 (U2OS [1]): 0.299 µM | fractional viability (U2OS [2]; 0.00100578 µM): 0.99 | fractional viability (U2OS [2]; 0.00317827 µM): 0.992 | fractional viability (U2OS [2]; 0.0100433 µM): 0.993 | fractional viability (U2OS [2]; 0.0317369 µM): 0.992 | fractional viability (U2OS [2]; 0.100289 µM): 0.986 | fractional viability (U2OS [2]; 0.316912 µM): 0.986 | fractional viability (U2OS [2]; 1.00144 µM): 0.82 | fractional viability (U2OS [2]; 3.16456 µM): 0.615 | fractional viability (U2OS [2]; 10 µM): 0.0044 | FV IC50 (U2OS [3]): 3610 nM | drug GRADE (U2OS [4]): 17.3 | normalized growth rate inhibition value (U2OS [6]; 0.00100578 µM): 1.03 | normalized growth rate inhibition value (U2OS [6]; 0.00317827 µM): 0.796 | normalized growth rate inhibition value (U2OS [6]; 0.0100433 µM): 0.854 | normalized growth rate inhibition value (U2OS [6]; 0.0317369 µM): 0.834 | normalized growth rate inhibition value (U2OS [6]; 0.100289 µM): 0.613 | normalized growth rate inhibition value (U2OS [6]; 0.316912 µM): 0.583 | normalized growth rate inhibition value (U2OS [6]; 1.00144 µM): -0.0282 | normalized growth rate inhibition value (U2OS [6]; 3.16456 µM): -0.2 | normalized growth rate inhibition value (U2OS [6]; 10 µM): -0.928

CCOc1cc2ncc(C#N)c(Nc3ccc(OCc4ccccn4)c(Cl)c3)c2cc1NC(=O)/C=C/CN(C)C [Neratinib]
GR50 (U2OS [1]): 0.346 µM | fractional viability (U2OS [2]; 0.000317827 µM): 0.985 | fractional viability (U2OS [2]; 0.00100433 µM): 0.987 | fractional viability (U2OS [2]; 0.00317369 µM): 0.985 | fractional viability (U2OS [2]; 0.0100289 µM): 0.986 | fractional viability (U2OS [2]; 0.0316912 µM): 0.984 | fractional viability (U2OS [2]; 0.100144 µM): 0.968 | fractional viability (U2OS [2]; 0.316456 µM): 0.933 | fractional viability (U2OS [2]; 1 µM): 0.879 | fractional viability (U2OS [2]; 3.16 µM): 0.189 | FV IC50 (U2OS [3]): 1970 nM | drug GRADE (U2OS [4]): 20 | normalized growth rate inhibition value (U2OS [6]; 0.000317827 µM): 0.803 | normalized growth rate inhibition value (U2OS [6]; 0.00100433 µM): 0.812 | normalized growth rate inhibition value (U2OS [6]; 0.00317369 µM): 0.867 | normalized growth rate inhibition value (U2OS [6]; 0.0100289 µM): 0.776 | normalized growth rate inhibition value (U2OS [6]; 0.0316912 µM): 0.727 | normalized growth rate inhibition value (U2OS [6]; 0.100144 µM): 0.638 | normalized growth rate inhibition value (U2OS [6]; 0.316456 µM): 0.457 | normalized growth rate inhibition value (U2OS [6]; 1 µM): 0.255 | normalized growth rate inhibition value (U2OS [6]; 3.16 µM): -0.534

COCC[n+]1c2c(n(Cc3cnccn3)c1C)C(=O)c1ccccc1C2=O [YM155]
GR50 (U2OS [1]): 0.00769 µM | fractional viability (U2OS [2]; 3.16 pM): 0.981 | fractional viability (U2OS [2]; 31.6 pM): 0.981 | fractional viability (U2OS [2]; 0.000316 µM): 0.983 | fractional viability (U2OS [2]; 0.00316 µM): 0.962 | fractional viability (U2OS [2]; 0.01 µM): 0.852 | fractional viability (U2OS [2]; 0.0316 µM): 0.59 | fractional viability (U2OS [2]; 0.1 µM): 0.0412 | fractional viability (U2OS [2]; 0.316 µM): 0.00681 | fractional viability (U2OS [2]; 1 µM): 0.00318 | fractional viability (U2OS [2]; 3.16 µM): 0.00039 | fractional viability (U2OS [2]; 10 µM): 0 | fractional viability (U2OS [2]; 31.6 µM): 0.0019 | FV IC50 (U2OS [3]): 36.4 nM | drug GRADE (U2OS [4]): 44.1 | GRmin (U2OS [5]): -0.913 | normalized growth rate inhibition value (U2OS [6]; 3.16 pM): 0.943 | normalized growth rate inhibition value (U2OS [6]; 31.6 pM): 1 | normalized growth rate inhibition value (U2OS [6]; 0.000316 µM): 1.02 | normalized growth rate inhibition value (U2OS [6]; 0.00316 µM): 0.777 | normalized growth rate inhibition value (U2OS [6]; 0.01 µM): 0.107 | normalized growth rate inhibition value (U2OS [6]; 0.0316 µM): 0.0141 | normalized growth rate inhibition value (U2OS [6]; 0.1 µM): -0.788 | normalized growth rate inhibition value (U2OS [6]; 0.316 µM): -0.79 | normalized growth rate inhibition value (U2OS [6]; 1 µM): -0.94 | normalized growth rate inhibition value (U2OS [6]; 3.16 µM): -0.882 | normalized growth rate inhibition value (U2OS [6]; 10 µM): -0.967 | normalized growth rate inhibition value (U2OS [6]; 31.6 µM): -0.859

CC(C)[C@]12O[C@H]1[C@@H]1O[C@]13[C@]1(O[C@H]1C[C@H]1C4=C(CC[C@@]13C)C(=O)OC4)[C@@H]2O [Triptolide]
GR50 (U2OS [1]): 0.00421 µM | fractional viability (U2OS [2]; 3.16 pM): 0.981 | fractional viability (U2OS [2]; 31.6 pM): 0.979 | fractional viability (U2OS [2]; 0.000316 µM): 0.979 | fractional viability (U2OS [2]; 0.00316 µM): 0.957 | fractional viability (U2OS [2]; 0.0316 µM): 0.18 | fractional viability (U2OS [2]; 0.316 µM): 0.155 | fractional viability (U2OS [2]; 3.16 µM): 0.154 | fractional viability (U2OS [2]; 31.6 µM): 0.159 | FV IC50 (U2OS [3]): 11.2 nM | drug GRADE (U2OS [4]): 8 | GRmin (U2OS [5]): -0.262 | normalized growth rate inhibition value (U2OS [6]; 3.16 pM): 1.03 | normalized growth rate inhibition value (U2OS [6]; 31.6 pM): 1.01 | normalized growth rate inhibition value (U2OS [6]; 0.000316 µM): 0.928 | normalized growth rate inhibition value (U2OS [6]; 0.00316 µM): 0.633 | normalized growth rate inhibition value (U2OS [6]; 0.0316 µM): -0.197 | normalized growth rate inhibition value (U2OS [6]; 0.316 µM): -0.249 | normalized growth rate inhibition value (U2OS [6]; 3.16 µM): -0.267 | normalized growth rate inhibition value (U2OS [6]; 31.6 µM): -0.258

Cc1ccc(Nc2nccc(N(C)c3ccc4c(C)n(C)nc4c3)n2)cc1S(N)(=O)=O [Pazopanib]
GR50 (U2OS [1]): 19.9 µM | fractional viability (U2OS [2]; 0.01 µM): 0.98 | fractional viability (U2OS [2]; 0.0316 µM): 0.986 | fractional viability (U2OS [2]; 0.1 µM): 0.98 | fractional viability (U2OS [2]; 0.316 µM): 0.978 | fractional viability (U2OS [2]; 1 µM): 0.979 | fractional viability (U2OS [2]; 3.16 µM): 0.978 | fractional viability (U2OS [2]; 10 µM): 0.917 | fractional viability (U2OS [2]; 31.6 µM): 0.763 | drug GRADE (U2OS [4]): 47.8 | GRmin (U2OS [5]): 0.369 | normalized growth rate inhibition value (U2OS [6]; 0.01 µM): 0.995 | normalized growth rate inhibition value (U2OS [6]; 0.0316 µM): 1.04 | normalized growth rate inhibition value (U2OS [6]; 0.1 µM): 1.07 | normalized growth rate inhibition value (U2OS [6]; 0.316 µM): 1 | normalized growth rate inhibition value (U2OS [6]; 1 µM): 1.04 | normalized growth rate inhibition value (U2OS [6]; 3.16 µM): 0.915 | normalized growth rate inhibition value (U2OS [6]; 10 µM): 0.68 | normalized growth rate inhibition value (U2OS [6]; 31.6 µM): 0.431

C=CCn1c(=O)c2cnc(Nc3ccc(N4CCN(C)CC4)cc3)nc2n1-c1cccc(C(C)(C)O)n1 [MK1775]
GR50 (U2OS [1]): 0.156 µM | fractional viability (U2OS [2]; 0.01 µM): 0.978 | fractional viability (U2OS [2]; 0.0316 µM): 0.977 | fractional viability (U2OS [2]; 0.1 µM): 0.948 | fractional viability (U2OS [2]; 0.316 µM): 0.725 | fractional viability (U2OS [2]; 1 µM): 0.294 | fractional viability (U2OS [2]; 3.16 µM): 0.125 | fractional viability (U2OS [2]; 10 µM): 0.0517 | fractional viability (U2OS [2]; 31.6 µM): 0.0225 | FV IC50 (U2OS [3]): 584 nM | drug GRADE (U2OS [4]): 40.7 | GRmin (U2OS [5]): -0.689 | normalized growth rate inhibition value (U2OS [6]; 0.01 µM): 1.15 | normalized growth rate inhibition value (U2OS [6]; 0.0316 µM): 1.03 | normalized growth rate inhibition value (U2OS [6]; 0.1 µM): 0.664 | normalized growth rate inhibition value (U2OS [6]; 0.316 µM): 0.061 | normalized growth rate inhibition value (U2OS [6]; 1 µM): -0.346 | normalized growth rate inhibition value (U2OS [6]; 3.16 µM): -0.56 | normalized growth rate inhibition value (U2OS [6]; 10 µM): -0.681 | normalized growth rate inhibition value (U2OS [6]; 31.6 µM): -0.762
